# Measurements taken from patent US20260232767A1, “INTERLEUKIN-23 RECEPTOR ANTAGONIST PEPTIDES FOR USE IN THE TREATMENT OF PSORIASIS” (Janssen Pharmaceutica NV, priority 2023, published 2026).
# Like-named read-outs stand apart in the source and are kept apart here.
# Assay: Plasma concentrations (PK), Example 1
# Assay type: in vivo, human
# Settings: for level at 672 h / level at 1344 h / level at 2016 h / level at 2688 h: 100 mg; for level at 672 h: Week 4; for level at 1344 h: Week 8
# Method: For QD dosing, peak concentration was defined as any PK sample taken between 0.25 to <6 hours after the last morning dose and trough concentration was at least 20 hours after the last morning dose. For BID dosing, peak concentration was defined as any PK sample taken between 0.25 to <4 hours after the last dose and trough concentration was at least 8 hours after the last dose.
# [1] = human, plasma, oral, 100 mg BID, Peak, read-out: Plasma concentration, Mean
# [2] = human, plasma, oral, 100 mg BID, Peak, read-out: Plasma concentration, Median
# [3] = human, plasma, oral, 100 mg QD, Intermediate, read-out: Plasma concentration, Geometric Mean
# [4] = human, plasma, oral, 100 mg QD, Peak, read-out: Plasma concentration, Geometric Mean
# [5] = human, plasma, oral, 100 mg QD, Peak, read-out: Plasma concentration, Mean
# [6] = human, plasma, oral, 100 mg QD, Peak, read-out: Plasma concentration, Median
smiles,measurement,setting,value
"CC(=O)NCCCC[C@@H]1NC(=O)[C@H](Cc2c[nH]c3c(C)cccc23)NC(=O)[C@H]([C@@H](C)O)NC(=O)[C@H](CC(N)=O)NC(=O)[C@@H](NC(C)=O)C(C)(C)SSC(C)(C)[C@@H](C(=O)N[C@@H](Cc2ccc(OCCN)cc2)C(=O)N[C@@H](Cc2ccc3ccccc3c2)C(=O)NC2(C(=O)N[C@@H](CCC(=O)O)C(=O)N[C@@H](CC(N)=O)C(=O)N[C@@H](Cc3cccnc3)C(=O)N(C)CC(N)=O)CCOCC2)NC1=O [IL-23 receptor antagonist peptide, Ac-[Pen]*-N-T-[W(7-Me)]-[Lys(Ac)]-[Pen]*-Phe[4-(2-aminoethoxy)]-[2-Nal]-[THP]-E-N-[3-Pal]-Sarc-NH2 (*[Pen]-[Pen]* formdisulfidebond)]",level at 672 h,[1],2.05 ng/mL
same,level at 672 h,[2],1.84 ng/mL
same,level at 1344 h,"human, plasma, oral, 100 mg BID, Intermediate, read-out: Plasma concentration, Geometric Mean",0.675 ng/mL
same,level at 1344 h,"human, plasma, oral, 100 mg BID, Intermediate, read-out: Plasma concentration, Mean",1.04 ng/mL
same,level at 1344 h,"human, plasma, oral, 100 mg BID, Intermediate, read-out: Plasma concentration, Median",0.84 ng/mL
same,level at 1344 h,"human, plasma, oral, 100 mg BID, Peak, read-out: Plasma concentration, Geometric Mean",1.86 ng/mL
same,level at 1344 h,[1],3.55 ng/mL
same,level at 1344 h,[2],1.44 ng/mL
same,level at 1344 h,"human, plasma, oral, 100 mg BID, Trough, read-out: Plasma concentration, Geometric Mean",0.664 ng/mL
same,level at 1344 h,"human, plasma, oral, 100 mg BID, Trough, read-out: Plasma concentration, Mean",0.961 ng/mL
same,level at 1344 h,"human, plasma, oral, 100 mg BID, Trough, read-out: Plasma concentration, Median",0.744 ng/mL
same,level at 2016 h,"human, plasma, oral, 100 mg BID, Week 12, Trough, read-out: Plasma concentration, Mean",1.1 ng/mL
same,level at 672 h,[3],0.683 ng/mL
same,level at 672 h,[4],0.968 ng/mL
same,level at 672 h,[5],1.31 ng/mL
same,level at 672 h,[6],1.34 ng/mL
same,level at 1344 h,[3],0.235 ng/mL
same,level at 1344 h,"human, plasma, oral, 100 mg QD, Intermediate, read-out: Plasma concentration, Mean",0.235 ng/mL
same,level at 1344 h,"human, plasma, oral, 100 mg QD, Intermediate, read-out: Plasma concentration, Median",0.235 ng/mL
same,level at 1344 h,[4],0.892 ng/mL
same,level at 1344 h,[5],1.15 ng/mL
same,level at 1344 h,[6],0.873 ng/mL
same,level at 1344 h,"human, plasma, oral, 100 mg QD, Trough, read-out: Plasma concentration, Geometric Mean",0.175 ng/mL
same,level at 1344 h,"human, plasma, oral, 100 mg QD, Trough, read-out: Plasma concentration, Mean",0.229 ng/mL
same,level at 1344 h,"human, plasma, oral, 100 mg QD, Trough, read-out: Plasma concentration, Median",0.149 ng/mL
same,level at 2016 h,"human, plasma, oral, 100 mg QD, Week 12, Trough, read-out: Plasma concentration, Mean",0.355 ng/mL
same,level at 2016 h,"human, plasma, oral, weight >90 kg, 100 mg BID, Week 12, Intermediate, read-out: Plasma concentration, Geometric Mean",0.601 ng/mL
same,level at 2016 h,"human, plasma, oral, weight >90 kg, 100 mg BID, Week 12, Peak, read-out: Plasma concentration, Geometric Mean",2.13 ng/mL
same,level at 2016 h,"human, plasma, oral, weight >90 kg, 100 mg BID, Week 12, Peak, read-out: Plasma concentration, Mean",6.41 ng/mL
same,level at 2016 h,"human, plasma, oral, weight >90 kg, 100 mg BID, Week 12, Peak, read-out: Plasma concentration, Median",1.29 ng/mL
same,level at 2688 h,"human, plasma, oral, weight >90 kg, 100 mg BID, Week 16, Intermediate, read-out: Plasma concentration, Mean",0.724 ng/mL
same,level at 2688 h,"human, plasma, oral, weight >90 kg, 100 mg BID, Week 16, Trough, read-out: Plasma concentration, Geometric Mean",0.522 ng/mL
same,level at 2688 h,"human, plasma, oral, weight >90 kg, 100 mg BID, Week 16, Trough, read-out: Plasma concentration, Mean",0.755 ng/mL
same,level at 2688 h,"human, plasma, oral, weight >90 kg, 100 mg BID, Week 16, Trough, read-out: Plasma concentration, Median",0.428 ng/mL
same,level at 2016 h,"human, plasma, oral, weight >90 kg, 100 mg QD, Week 12, Intermediate, read-out: Plasma concentration, Geometric Mean",0.75 ng/mL
same,level at 2016 h,"human, plasma, oral, weight >90 kg, 100 mg QD, Week 12, Peak, read-out: Plasma concentration, Geometric Mean",1.04 ng/mL
same,level at 2016 h,"human, plasma, oral, weight >90 kg, 100 mg QD, Week 12, Peak, read-out: Plasma concentration, Mean",1.04 ng/mL
same,level at 2016 h,"human, plasma, oral, weight >90 kg, 100 mg QD, Week 12, Peak, read-out: Plasma concentration, Median",1.09 ng/mL
same,level at 2688 h,"human, plasma, oral, weight >90 kg, 100 mg QD, Week 16, Intermediate, read-out: Plasma concentration, Mean",0.378 ng/mL
same,level at 2688 h,"human, plasma, oral, weight >90 kg, 100 mg QD, Week 16, Trough, read-out: Plasma concentration, Geometric Mean",0.102 ng/mL
same,level at 2688 h,"human, plasma, oral, weight >90 kg, 100 mg QD, Week 16, Trough, read-out: Plasma concentration, Mean",0.11 ng/mL
same,level at 2688 h,"human, plasma, oral, weight >90 kg, 100 mg QD, Week 16, Trough, read-out: Plasma concentration, Median",0.129 ng/mL
same,half-life,"human, plasma, oral, read-out: Terminal elimination half-life",9 to 12 h
same,Attainment of steady state conditions,oral daily dosing,≤ 1 Week
